# Measured values: US7939639B2, “Functional role of adrenomedullin (AM) and the gene related product (PAMP) in human pathology and physiology” (The United States of America as represented by the …, priority 1995, dated 2011)
# “Also recorded” adds a separate entry of the source.
# What was measured:
# P. aeruginosa = assay: Micro-/macrodilution timed kill assay, P. aeruginosa; assay type: cell-based, Pseudomonas aeruginosa; conditions: 24 hours exposure compared with 6 hours incubation
# Experimental: (§1) Inhibition of growth of E. coli was assessed in a microdilutional timed kill assay. (See FIG. 22) Bacteria and Candida albicans were grown overnight on trypticase soy agar (TSA) and Sobouraud dextrose agar (SDA) plates, respectively, were suspended into RPMI-1640 medium (Bio-Whittaker) and adjusted to a final concentration of 8×10^3 cfu/ml in […] in plastic microdilution trays. […] Plates were incubated at 37° C. with gentle agitation over 24 hours. At 6 hr and 24 hr time points, 10 to […] aliquots from each well were quantitatively cultured by serial 100-fold dilutions onto TSA and SDA plates.
# (§2) Data were compiled from six experiments. Macrodilution assays were performed in 12×75 mm borosilicate glass tubes. Organisms were grown and harvested, as described in Roilides, E., et al., J Infect Dis. 163:579 (1991), and adjusted to a final inoculum concentration of 8×10^3 cfu/ml in 400 μl. […] Tubes were incubated at 37° C. with gentle agitation over 24 hours. At 6 and 24 hour time points, 100 μl aliquots from each tube were quantitatively cultured by serial 100-fold dilutions onto TSA and SDA plates.
# MCF-7 = assay: Soft agar clonal growth assay, MCF-7; assay type: cell-based, human; conditions: exogenous AM
# E. coli [1] = assay: Microdilutional timed kill assay, E. coli; assay type: cell-based, Escherichia coli
# Experimental: Inhibition of growth of E. coli was assessed in a microdilutional timed kill assay. (See FIG. 22) Bacteria and Candida albicans were grown overnight on trypticase soy agar (TSA) and Sobouraud dextrose agar (SDA) plates, respectively, were suspended into RPMI-1640 medium (Bio-Whittaker) and adjusted to a final concentration of 8×10^3 cfu/ml in […] in plastic microdilution trays. AM-related peptides, magainins, and albumin were added in equimolar concentrations ranging from 8 μM to 300 μM. Plates were incubated at 37° C. with gentle agitation over 24 hours. At 6 hr and 24 hr time points, 10 to […] aliquots from each well were quantitatively cultured by serial 100-fold dilutions onto TSA and SDA plates.
# C. albicans = assay: Germination assay, C. albicans; assay type: cell-based, Candida albicans
# Experimental: Data were compiled from 11 experiments. Germination was determined by incubating colonies of C. albicans that were harvested from an overnight growth on SDA and suspended on RPMI-1640 containing concentrations of AM from 8 to 85 μM. Organisms were incubated at 37° C. and germination was measured at 2 h and 4 h by reading 100 to 200 organisms per concentration per time point in each experiment. Percent germination was assessed as the proportion of blastoconidia of C. albicans bearing the characteristic parallel-walled tubular element to the total number of blastoconidia.
# AM receptor = assay: cAMP assay (RIA), MCF-7; assay type: cell-based, human
# Experimental: k. cAMP Assays: Cyclic AMP was assayed by RIA using a kit obtained from New England Nuclear (Boston, Mass.). […] The supernatants were tested for cAMP using the RIA kit following the manufacturer's instructions.
# S. aureus = assay: Micro-/macrodilutional assays, S. aureus; assay type: cell-based, Staphylococcus aureus; conditions: microdilutional or macrodilutional assays
# Experimental: as §1, §2
# E. coli [2] = assay: Macrodilution assay, E. coli; assay type: cell-based, Escherichia coli; conditions: E. coli
# Experimental: as §2
smiles,measurement,setting,value
CC[C@H](C)[C@H](NC(=O)[C@H](CCC(N)=O)NC(=O)[C@H](Cc1c[nH]cn1)NC(=O)[C@H](C)NC(=O)[C@H](CC(C)C)NC(=O)[C@H](CCCCN)NC(=O)[C@H](CCC(N)=O)NC(=O)[C@@H](NC(=O)[C@@H](NC(=O)[C@@H]1CSSC[C@H](NC(=O)CNC(=O)[C@H](Cc2ccccc2)NC(=O)[C@H](CO)NC(=O)[C@H](CCCNC(=N)N)NC(=O)[C@H](CC(C)C)NC(=O)CNC(=O)[C@H](CCC(N)=O)NC(=O)[C@H](Cc2ccccc2)NC(=O)[C@H](CC(N)=O)NC(=O)[C@H](CC(N)=O)NC(=O)[C@H](CCSC)NC(=O)[C@H](CO)NC(=O)[C@H](CCC(N)=O)NC(=O)[C@H](CCCNC(=N)N)NC(=O)[C@@H](N)Cc2ccc(O)cc2)C(=O)N[C@@H](CCCNC(=N)N)C(=O)N[C@@H](Cc2ccccc2)C(=O)NCC(=O)N[C@@H]([C@@H](C)O)C(=O)N1)[C@@H](C)O)C(C)C)C(=O)N[C@@H](Cc1ccc(O)cc1)C(=O)N[C@@H](CCC(N)=O)C(=O)N[C@@H](Cc1ccccc1)C(=O)N[C@H](C(=O)N[C@@H](CC(=O)O)C(=O)N[C@@H](CCCCN)C(=O)N[C@@H](CC(=O)O)C(=O)N[C@@H](CCCCN)C(=O)N[C@@H](CC(=O)O)C(=O)N[C@@H](CC(N)=O)C(=O)N[C@H](C(=O)N[C@@H](C)C(=O)N1CCC[C@H]1C(=O)N[C@@H](CCCNC(=N)N)C(=O)N[C@@H](CO)C(=O)N[C@@H](CCCCN)C(=O)N[C@H](C(=O)N[C@@H](CO)C(=O)N1CCC[C@H]1C(=O)N[C@@H](CCC(N)=O)C(=O)NCC(=O)N[C@@H](Cc1ccc(O)cc1)C(N)=O)[C@@H](C)CC)C(C)C)[C@@H](C)O [AM],"antimicrobial activity against P. aeruginosa, 24 hours versus 6 hours",P. aeruginosa,greater antimicrobial activity
same,clonal growth in soft agar,MCF-7,elevated clonal growth
same,activity against E. coli,E. coli [1]; after 6 hours of incubation,activity
same,"growth inhibitory activity against E. coli, comparative","E. coli [1]; microdilution, 6 hours, FIG. 22",higher growth inhibitory activity than albumin
same,"suppression of germination of C. albicans, 2 hours",C. albicans; 2 hours incubation,non-significant trend in the suppression of germination; also recorded: not significant
same,"inhibition of germination of C. albicans, 4 hours","C. albicans; increasing concentrations of AM (8 to 85 μM), 4 hours incubation",significant inhibition of germination
same,effect on cAMP,AM receptor; MCF-7,activated; also recorded: rapid increase in cellular cAMP
same,maximum elevation of cellular cAMP,AM receptor; relative to normal control,three times that of the normal control
same,growth suppressive activity against S. aureus,S. aureus,ineffective; also recorded: no apparent growth suppressive activity
same,"antimicrobial activity, macrodilution, 6 hours",E. coli [2]; 6 hours incubation,no activity
same,"antimicrobial activity, macrodilution, 24 hours",E. coli [2]; 24 hours incubation,somewhat more active than PAMP; also recorded: slightly more active than PAMP
